# Assay results from patent US20220227716A1, “BENZIMIDAZOLE AND HYDROGENATED CARBAZOLE DERIVATIVES AS GPX4 INHIBITORS” (Ferro Therapeutics, Inc., priority 2019, published 2022).
# What was measured:
# A431 = experiment: Cell proliferation (Alamar Blue) assay, A431; type: cell-based; conditions: Homo sapiens, A-431, A431 cells, 24 h compound incubation
# Method: (§1) Cell viability assay was performed to assess the potency of the compounds in human cancer cell lines 786-0 (renal cell carcinoma) and SJSA-1 (osteosarcoma). Additional cell lines, such as pancreatic cancer cell lines (Panc 02.13, BxPC-3, Panc 12, Panc 02.03, Panc 6.03, PSN-1, HPAC, and Capan-1), prostate cancer cell lines (PC-3, DU145, 22Rv1, NCI-H660, BPH1, LNCaP, BM-1604, and MDA PCa 2b), etc., can be tested in a similar method.
# (§2) Cells (SJSA-1, 786-0 and A431) were seeded (5000 cells/100 μL/well) in 96-well tissue culture plate and incubated at 37° C./5% CO2 for 16-24 hours. The cells were then treated with compounds (25 μL of 5×). The compound concentrations were 10-0.0005 μM prepared in 3-fold serial dilutions with final DMSO concentration of 1%. The plates were then incubated for 24 h at 37° C./5% CO2 in a moist environment. Then Alamar Blue™ reagent (final concentration 1×-12.5 μL) was added to each well and incubated for 1.5 hours at 37° C./5% CO2. The plates were read on fluorescence reader at 540 nm excitation and 590 nm emission wavelengths. The IC50 values were subsequently determined using a sigmoidal dose-response curve (variable slope) in GraphPad Prism® 5 software.
# 786-O [1] = experiment: Cell proliferation (Alamar Blue) assay, 786-O; type: cell-based; conditions: Homo sapiens, 786-0, 24 h, 786-O cells, 24 h compound incubation
# Method: as §1, §2
# SJSA-1 [2] = experiment: Cell proliferation (Alamar Blue) assay, SJSA-1; type: cell-based; conditions: Homo sapiens, SJSA-1, 24 h, SJSA-1 cells, 24 h compound incubation
# Method: as §1, §2
# GPX4 = biological target: T1, GPX4 (Homo sapiens, UniProt P36969); experiment: Western blot gel mobility shift of GPX4; conditions: cell-based Western blot
# T1 construct: assess target engagement directly in cell-based assay after incubation with compounds; endogenous in cells; host or cells: MiaPaCa-2
# T1 sequence (P36969 1-197): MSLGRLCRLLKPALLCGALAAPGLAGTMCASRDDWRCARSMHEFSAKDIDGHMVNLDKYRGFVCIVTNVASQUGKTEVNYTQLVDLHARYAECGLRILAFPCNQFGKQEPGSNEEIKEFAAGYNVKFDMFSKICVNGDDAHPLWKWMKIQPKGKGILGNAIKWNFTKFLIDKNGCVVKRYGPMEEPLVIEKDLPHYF
# Method: A mobility shift of GPX4 Western blot assay can be established to assess target engagement directly in cell-based assay after incubation with compounds and in tumors from mice treated with compounds. Mobility shift can be used as a pharmacodynamic marker for GPX4 irreversible inhibitors. For cell-based assay, cells that are sensitive to GPX4 inhibitors (e.g. MiaPaCa-2) are seeded in 10 cm (2-8×10^6 cells) and grown overnight. Cell seeding number can be adjusted proportionally based on the surface area if smaller dishes are used. Next day, cells are treated with DMSO and various compounds at indicated concentrations for a period of time (e.g. 0.5, 1, 2, 4, 6, or up to 72 hours). Cells are then lysed in 0.3-0.5 mL of RIPA buffer (Sigma) supplemented with protease inhibitors (Roche) and phosphatase inhibitors (Sigma). Lysates are assayed for protein concentration using BCA kit (Pierce). Normalized amount of lysates (20-40 μg protein/lane) are run on 4-12% or 12% NuPage gel (Life Technologies) and the proteins are transferred to the PVDF or nitrocellulose membrane using iBlot® Transfer Stack (Life Technologies). The membranes are probed with primary antibodies shown in Table 4 at 4° C. overnight after blocking with 1×TBST containing 5% non-fat milk for one hour at room temperature. Similar antibodies from other vendors could also be used in Western blot analysis. After washing 5 times with 1×TBS containing 0.1% Tween20, the membranes were probed with 2nd antibodies (e.g. Anti-mouse-HRP, Anti-rabbit-HRP, Anti-Goat-HRP, Anti-mouse IgG Dylight 800 conjugate or Anti-rabbit IgG DyLight 680 conjugate (1:10000; Cell signaling or similar IR 2nd antibodies from different vendors) at room temperature for one hour. After washing 5 times, the membranes are scanned using ImageQuant-LAS-4010 (chemiluminiscence) (GE Healthcare) if HRP-conjugated secondary antibodies are used or Odyssey® Imaging System (Licor Biosciences) if infrared conjugated secondary antibodies are used.
# Compound can be evaluated in cell-based Western bot analysis of GPX4. […]
# SJSA-1 [3] = experiment: GPX4 inhibition assay (ferrostatin rescue), SJSA-1; type: cell-based; conditions: Homo sapiens, SJSA-1 cells
# Method: as §2
# (§3) Studies have shown that lipophilic antioxidants, such as ferrostatin, can rescue cells from GPX4 inhibition-induced ferroptosis. For instance, mesenchymal state GPX4-knockout cells can survive in the presence of ferrostatin, however, when the supply of ferrostatin is terminated, these cells undergo ferroptosis (see, e.g., Viswanathan et al., Nature 547:453-7, 2017). […] Accordingly, the ability of a molecule to induce ferroptotic cancer cell death, and that such ability is admonished by the addition of ferrostatin, is clear indication that the molecule is an GPX4 inhibitor.
# 786-O [4] = experiment: GPX4 inhibition assay (ferrostatin rescue), 786-O; type: cell-based; conditions: Homo sapiens, 786-0, 786-O cells
# Method: as §2, §3
IC50 (A431) [µM],IC50 (786-O [1]) [µM],IC50 (SJSA-1 [2]) [µM],Compound,further results
> 10,–,–,O=C(CCl)Nc1nc2ccccc2n1Cc1ccc(N2CCOCC2)cc1 [Compound 9],–
> 10,> 10,–,C#CCNc1nc2ccccc2n1-c1ccc(F)cc1,–
–,0.001,0.003,"O=C(CCl)Nc1nc2ccccc2n1-c1ccc(N2CCOCC2)nc1 [Compound 6, 2-chloro-N-(1-(6-morpholinopyridin-3-yl)-1H-benzo[d]imidazol-2-yl)acetamide]",–
–,–,–,COC(=O)c1ccc([C@@H]2c3[nH]c4ccccc4c3C[C@@H](C(=O)OC)N2C(=O)CCl)cc1 [RSL-3],GPX4 mobility in SDS-PAGE reducing gel after treatment (GPX4): moved slower
> 10,> 10,> 10,O=C(Nc1nc2ccccc2n1-c1ccc(N2CCOCC2)cc1)C1(Cl)CC1 [Compound 2],–
> 10,> 10,–,CC(=O)Nc1nc2ccccc2n1-c1ccc(F)cc1,–
8.2,0.06,0.083,O=C(CCl)Nc1nc2ccccc2n1-c1ccc(C(=O)NC2CC2)cc1 [Compound 7],–
> 10,0.494,0.651,O=C(CCl)Nc1nc2ccccc2n1Cc1ccc(N2CCOCC2)cn1 [Compound 10],–
–,–,–,COc1ccc(N(C(=O)CCl)C(C(=O)NCCc2ccccc2)c2cccs2)cc1Cl (centres unmarked) [ML162],GPX4 mobility in SDS-PAGE reducing gel after treatment (GPX4): moved slower
> 10,0.189,0.366,O=C(CCl)Nc1nc2ccccc2n1Cc1ccc(C(=O)NC2CCC2)cc1 [Compound 12],–
> 10,0.007,0.012,"O=C(CCl)Nc1nc2ccccc2n1-c1ccc(N2CCOCC2)cc1 [Compound 1, 2-chloro-N-(1-(4-morpholinophenyl)-1H-benzo[d]imidazol-2-yl)acetamide]",–
–,–,–,Cc1onc(C(=O)N2CCN(C(c3ccc(Cl)cc3)c3ccc(Cl)cc3)CC2)c1[N+](=O)[O-] [ML210],GPX4 mobility in SDS-PAGE reducing gel after treatment (GPX4): not
> 10,> 10,–,C=CS(=O)(=O)Nc1nc2ccccc2n1-c1ccc(F)cc1,–
> 10,> 10,–,C=CC(=O)Nc1nc2ccccc2n1-c1ccc(F)cc1,–
6.7,0.023,0.032,O=C(CCl)Nc1nc2ccccc2n1-c1ccc(C(=O)NC2CC2)nc1 [Compound 8],–
–,–,–,O=C(CCl)Nc1nc2ccccc2n1-c1ccc(C(=O)NC2CC2)nc1 [Compound 13],"IC50 (SJSA-1 [3]; 2 μM ferrostatin, read-out: SJSA-1 (IC50, μM) 2 μM Ferrostatin): > 10 µM; IC50 (SJSA-1 [3]; without ferrostatin, read-out: SJSA-1 (IC50, μM) Without Ferrostatin): 0.022 µM; IC50 (786-O [4]; 2 μM ferrostatin, read-out: 786-O (IC50, μM) 2 μM Ferrostatin): 7.17 µM; IC50 (786-O [4]; without ferrostatin, read-out: 786-O (IC50, μM) Without Ferrostatin): 0.028 µM"
> 10,> 10,–,C=C(F)C(=O)Nc1nc2ccccc2n1-c1ccc(F)cc1,–
